For 32 compounds, IC50 results are on record in US9695178B2, “6-(2-pyridyl)-7,8-dihydro-5H-pyrido[4,3-D]pyrimidine analogs as hedgehog pathway signaling inhibitors and therapeutic applications thereof” (Suzhou Yunxuan Yiyao Keji Youxian Gongsi, priority 2013, dated 2017).

This experiment concerns the target Smo (Homo sapiens, UniProt Q99835). Nature of the experiment: Bodipy-Cyclopamine Binding Assay (confirmation assay), Hek293-SMO cells.

Chain of Smo (Q99835 28-787): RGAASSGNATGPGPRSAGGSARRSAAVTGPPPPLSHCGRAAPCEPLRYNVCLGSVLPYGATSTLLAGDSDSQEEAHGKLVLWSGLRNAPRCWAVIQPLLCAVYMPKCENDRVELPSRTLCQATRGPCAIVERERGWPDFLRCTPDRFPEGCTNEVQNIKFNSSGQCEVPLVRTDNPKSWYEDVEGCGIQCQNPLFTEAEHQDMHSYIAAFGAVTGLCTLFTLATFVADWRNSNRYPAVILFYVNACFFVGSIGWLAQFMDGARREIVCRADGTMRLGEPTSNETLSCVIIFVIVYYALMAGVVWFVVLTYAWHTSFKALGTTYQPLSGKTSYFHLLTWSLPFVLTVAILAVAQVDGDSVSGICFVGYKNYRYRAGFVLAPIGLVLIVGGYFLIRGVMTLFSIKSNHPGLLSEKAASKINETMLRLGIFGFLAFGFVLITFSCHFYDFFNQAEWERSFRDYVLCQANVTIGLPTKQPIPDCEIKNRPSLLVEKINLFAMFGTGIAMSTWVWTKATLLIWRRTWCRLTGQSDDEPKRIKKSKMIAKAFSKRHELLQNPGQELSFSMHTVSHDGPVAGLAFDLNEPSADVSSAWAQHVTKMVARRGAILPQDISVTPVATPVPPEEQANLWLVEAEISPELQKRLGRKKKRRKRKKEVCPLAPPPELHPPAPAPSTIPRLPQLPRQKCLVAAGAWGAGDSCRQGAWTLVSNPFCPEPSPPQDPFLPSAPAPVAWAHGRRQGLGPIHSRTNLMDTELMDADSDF

By IC50 is commonly meant the concentration that gives 50% inhibition. A high value points to weaker potency in that assay. `Cc1cnc(-c2cc(N3CCc4nc(NCC5CC5)ncc4C3)ncc2Cl)c(C)c1` [Compound A-65, 6-(5′-chloro-3,5-dimethyl-2,4′-bipyridin-2′-yl)-N-(cyclopropyl-meth-yl)-5,6,7,8-tetrahydro-pyrido-[4,3-d]pyrimidin-2-amine] showed an IC50 of 85.3 nM.

Regarding `Cc1cnc(-c2cc(N3CCc4nc(N5CCC(O)C5)ncc4C3)ncc2Cl)c(C)c1` (centres unmarked) [Compound A-66, 1-(6-(5′-chloro-3,5-dimethyl-2,4′-bipyridin-2′-yl)-5,6,7,8-tetrahydro-pyrido-[4,3-d]pyrim-idin-2-yl)pyrrolidin-3-ol], the half-maximal inhibitory concentration (IC50) was 85.1 nM.

`CCOc1ncc2c(n1)CCN(c1cc(-c3ncc(C)cc3C)c(Cl)cn1)C2` [Compound A-67, 6-(5′-chloro-3,5-dimethyl-2,4′-bipyridin-2′-yl)-2-ethoxy-5,6,7,8-tetrahydro-pyrido-[4,3-d]pyrim-idine] displayed an IC50 of 207 nM.

For the compound `COC1CCN(c2ncc3c(n2)CCN(c2cc(-c4ncc(C)cc4C)c(Cl)cn2)C3)CC1` [Compound A-68, 6-(5′-chloro-3,5-dimethyl-2,4′-bipyridin-2′-yl)-2-(4-methoxy-piperidin-1-yl)-5,6,7,8-tetrahydro-pyrido-[4,3-d]pyrim-idine], the concentration for half-maximal inhibition (IC50) was found to be 163 nM.

With `Cc1cnc(-c2cc(N3CCc4nc(OC(C)C)ncc4C3)ncc2Cl)c(C)c1` [Compound A-69, 6-(5′-chloro-3,5-dimethyl-2,4′-bipyridin-2′-yl)-2-isopropoxy-5,6,7,8-tetrahydro-pyrido-[4,3-d]pyrim-idine], the concentration for half-maximal inhibition (IC50) was found to be 97.8 nM.

In turn, `Cc1cnc(-c2cc(N3CCc4nc(NC5CCCC5)ncc4C3)ncc2Cl)c(C)c1` [Compound A-70, 6-(5′-chloro-3,5-dimethyl-2,4′-bipyridin-2′-yl)-N-cyclopentyl-5,6,7,8-tetrahydro-pyrido-[4,3-d]pyrim-idin-2-amine] showed an IC50 of 117 nM.

`Cc1cnc(-c2cc(N3CCc4nc(OC5CCCC5)ncc4C3)ncc2Cl)c(C)c1` [Compound A-71, 6-(5′-chloro-3,5-dimethyl-2,4′-bipyridin-2′-yl)-2-(cyclo-pentyloxy)-5,6,7,8-tetrahydro-pyrido-[4,3-d]pyrim-idine] came in with a concentration for half-maximal inhibition (IC50) of 77.1 nM. This IC50 lies about 1.5-fold lower than the previous one.

Compound `Cc1cnc(-c2cc(N3CCc4nc(N5CC(O)C5)ncc4C3)ncc2Cl)c(C)c1` [Compound A-72, 1-(6-(5′-chloro-3,5-dimethyl-2,4′-bipyridin-2′-yl)-5,6,7,8-tetrahydro-pyrido-[4,3-d]pyrimidin-2-yl)azetidin-3-ol] displayed an IC50 of 283 nM.

Compound `Cc1cnc(-c2cc(N3CCc4nc(OCC5CC5)ncc4C3)ncc2Cl)c(C)c1` [Compound A-73, 6-(5′-chloro-3,5-dimethyl-2,4′-bipyridin-2′-yl)-2-(cyclopropyl-methoxy)-5,6,7,8-tetrahydro-pyrido-[4,3-d]pyrim-idine] came in with an IC50 of 84 nM.

Compound `CSc1ncc2c(n1)C(C)CN(c1cc(-c3ncc(C)cc3C)c(Cl)cn1)C2` (centres unmarked) [Compound A-74, 6-(5′-chloro-3,5-dimethyl-2,4′-bipyridin-2′-yl)-8-methyl-2-(methylthio)-5,6,7,8-tetrahydro-pyrido-[4,3-d]-pyrimidine] displayed an IC50 of 575 nM.

Regarding `Cc1cnc(-c2cc(N3Cc4cnc(NC5CC5)nc4C(C)C3)ncc2Cl)c(C)c1` (centres unmarked) [Compound A-75, 6-(5′-chloro-3,5-dimethyl-2,4′-bipyridin-2′-yl)-N-cyclopropyl-8-methyl-5,6,7,8-tetrahydro-pyrido-[4,3-d]pyrimidin-2-amine], the IC50 was found to be 257 nM.

On to `Cc1cnc(-c2cc(N3Cc4cnc(N5CC(C)NC(C)C5)nc4C(C)C3)ncc2Cl)c(C)c1` (centres unmarked) [Compound A-76, 6-(5′-chloro-3,5-dimethyl-2,4′-bipyridin-2′-yl)-2-(3,5-dimethyl-piperazin-1-yl)-8-methyl-5,6,7,8-tetrahydro-pyrido-[4,3-d]pyrimidine], for which the IC50 is 147 nM.

With `Cc1cnc(-c2cc(N3Cc4cnc(N5CCCC5)nc4C(C)C3)ncc2Cl)c(C)c1` (centres unmarked) [Compound A-77, 6-(5′-chloro-3,5-dimethyl-2,4′-bipyridin-2′-yl)-8-methyl-2-(pyrrolidin-1-yl)-5,6,7,8-tetrahydropyrido[4,3-d]pyrimidine], the IC50 was found to be 92.9 nM.

`Cc1cnc(-c2cc(N3CC(C)c4nc(N5CCC(O)CC5)ncc4C3=O)ncc2Cl)c(C)c1` (centres unmarked) [Compound A-78, 6-(5′-chloro-3,5-dimethyl-2,4′-bipyridin-2′-yl)-2-(4-hydroxy-piperidin-1-yl)-8-methyl-7,8-dihydro-pyrido[4,3-d]pyrimidin-5(6H)-one]: the IC50 was found to be 125 nM.

`CSc1ncc2c(n1)C(C)(C)CN(c1cc(-c3ncc(C)cc3C)c(Cl)cn1)C2` [Compound A-79, 6-(5′-chloro-3,5-dimethyl-2,4′-bipyridin-2′-yl)-8,8-dimethyl-2-(methylthio)-5,6,7,8-tetrahydro-pyrido-[4,3-d]pyrim-idine] showed an IC50 of 188 nM.

With `Cc1cnc(-c2cc(N3Cc4cnc(NC5CC5)nc4C(C)(C)C3)ncc2Cl)c(C)c1` [Compound A-80, 6-(5′-chloro-3,5-dimethyl-2,4′-bipyridin-2′-yl)-N-cyclopropyl-8,8-dimethyl-5,6,7,8-tetrahydro-pyrido-[4,3-d]pyrimidin-2-amine], the concentration for half-maximal inhibition (IC50) is 28.1 nM.

Regarding `Cc1cnc(-c2cc(N3Cc4cnc(N5CCCC5)nc4C(C)(C)C3)ncc2Cl)c(C)c1` [Compound A-81, 6-(5′-chloro-3,5-dimethyl-2,4′-bipyridin-2′-yl)-8,8-dimethyl-2-(pyrrolidin-1-yl)-5,6,7,8-tetrahydro-pyrido-[4,3-d]pyrimidine], the IC50 amounted to 167 nM.

For the compound `Cc1cnc(-c2cc(N3Cc4cnc(N5CC(C)NC(C)C5)nc4C(C)(C)C3)ncc2Cl)c(C)c1` (centres unmarked) [Compound A-82, 6-(5′-chloro-3,5-dimethyl-2,4′-bipyridin-2′-yl)-2-(3,5-dimethyl-piperazin-1-yl)-8,8-dimethyl-5,6,7,8-tetrahydro-pyrido-[4,3-d]pyrimidine], the IC50 is 105 nM.

For `Cc1cnc(-c2cc(N3CC(C)(C)c4nc(N5CCC(O)CC5)ncc4C3=O)ncc2Cl)c(C)c1` [Compound A-83, 6-(5′-chloro-3,5-dimethyl-2,4′-bipyridin-2′-yl)-2-(4-hydroxy-piperidin-1-yl)-8,8-dimethyl-7,8-dihydro-pyrido[4,3-d] pyrimidin-5(6H)-one], the IC50 was 211 nM.

In turn, `Cc1cnc(-c2cc(N3CCc4nc(N)ncc4C3)ncc2Cl)c(C)c1` [Compound A-89, 6-(5′-chloro-3,5-dimethyl-2,4′-bipyridin-2′-yl)-5,6,7,8-tetrahydropyrido-[4,3-d]pyrimidin-2-amine] had an IC50 greater than 1000 nM.

Turning to `CCOC(=O)Nc1ncc2c(n1)CCN(c1cc(-c3ncc(C)cc3C)c(Cl)cn1)C2` [Compound A-90, ethyl 6-(5′-chloro-3,5-dimethyl-2,4′-bipyridin-2′-yl)-5,6,7,8-tetrahydropyrido[4,3-d]pyrimidin-2-ylcarbamate], the IC50 was found to be 408 nM.

For `CCNC(=O)Nc1ncc2c(n1)CCN(c1cc(-c3ncc(C)cc3C)c(Cl)cn1)C2` [Compound A-91, 1-(6-(5′-chloro-3,5-dimethyl-2,4′-bipyridin-2′-yl)-5,6,7,8-tetrahydropyrido-[4,3-d]pyrimidin-2-yl)-3-ethylurea], the IC50 is greater than 1000 nM.

`Cc1cnc(-c2cc(N3CCc4nc(NC(=O)NC(C)C)ncc4C3)ncc2Cl)c(C)c1` [Compound A-92, 1-(6-(5′-chloro-3,5-dimethyl-2,4′-bipyridin-2′-yl)-5,6,7,8-tetrahydropyrido-[4,3-d]pyrimidin-2-yl)-3-isopropylurea]: the IC50 turned out to be 961 nM.

Take `Cc1cnc(-c2cc(N3CCc4nc(NC(=O)C(C)(C)C)ncc4C3)ncc2Cl)c(C)c1` [Compound A-93, N-(6-(5′-chloro-3,5-dimethyl-2,4′-bipyridin-2′-yl)-5,6,7,8-tetrahydropyrido-[4,3-d]pyrimidin-2-yl)pivalamide]: the half-inhibitory concentration (IC50) came out at 104 nM. Against the preceding compound, the IC50 is about 9.2-fold lower.

Regarding `CSc1ncc2c(n1)CCN(c1cc(-c3ncc(C)cc3C)c(Cl)cn1)C2=O` [Compound A-96, 6-(5′-chloro-3,5-dimethyl-2,4′-bipyridin-2′-yl)-2-(methylthio)-7,8-dihydro-pyrido[4,3-d]pyrimidin-5(6H)-one], the IC50 came out at 169 nM.

As for `Cc1cnc(-c2cc(N3CCc4nc(N5CCC(O)CC5)ncc4C3=O)ncc2Cl)c(C)c1` [Compound A-97, 6-(5′-chloro-3,5-dimethyl-2,4′-bipyridin-2′-yl)-2-(4-hydroxypiperidin-1-yl)-7,8-dihydro-pyrido[4,3-d]pyrimidin-5(6H)-one], the IC50 stood at 84.1 nM.

Compound `Cc1cnc(-c2cc(N3CCc4nc(S(C)(=O)=O)ncc4C3=O)ncc2Cl)c(C)c1` [Compound A-98, 6-(5′-chloro-3,5-dimethyl-2,4′-bipyridin-2′-yl)-2-(methyl-sulfonyl)-7,8-dihydro-pyrido[4,3-d]pyrimidin-5(6H)-one] showed an IC50 of 835 nM. Compared with the last compound, the IC50 is about 9.9-fold higher.

On to `Cc1cnc(-c2cc(N3CCc4nc(N5CC(C)NC(C)C5)ncc4C3=O)ncc2Cl)c(C)c1` (centres unmarked) [Compound A-101, 6-(5′-chloro-3,5-dimethyl-2,4′-bipyridin-2′-yl)-2-(3,5-dimethyl-piperazin-1-yl)-7,8-dihydro-pyrido[4,3-d]pyrimidin-5(6H)-one], for which the IC50 came out at 253 nM.

The compound `Cc1cnc(-c2cc(N3CCc4nc(NCC5CC5)ncc4C3=O)ncc2Cl)c(C)c1` [Compound A-104, 6-(5′-chloro-3,5-dimethyl-2,4′-bipyridin-2′-yl)-2-(cyclopro-pylmeth-ylamino)-7,8-dihydro-pyrido[4,3-d]pyrimidin-5(6H)-one] showed an IC50 of 76 nM.

With `Cc1cnc(-c2cc(N3CCc4nc(N5CCC(O)C5)ncc4C3=O)ncc2Cl)c(C)c1` (centres unmarked) [Compound A-105, 6-(5′-chloro-3,5-dimethyl-2,4′-bipyridin-2′-yl)-2-(3-hydroxy-pyrrolidin-1-yl)-7,8-dihydro-pyrido[4,3-d]pyrimidin-5(6H)-one], the IC50 was 272 nM.

Regarding `Cc1ccc(-c2cc(N3CCc4nc(NC5CC5)ncc4C3)ncc2Cl)nc1` [Compound A-110, 6-(5′-chloro-5-methyl-2,4′-bipyridin-2′-yl)-N-cyclopropyl-5,6,7,8-tetrahydropyrido-[4,3-d]pyrimidin-2-amine], the IC50 is greater than 1000 nM.

For `Cc1cccnc1-c1cc(N2CCc3nc(NC4CC4)ncc3C2)ncc1Cl` [Compound A-111, 6-(5′-chloro-3-methyl-2,4′-bipyridin-2′-yl)-N-cyclopropyl-5,6,7,8-tetrahydropyrido[4,3-d]pyrimidin-2-amine], the IC50 worked out at 82.9 nM.
